Where two headings read alike, the source gives them in different places.
Experiments:
[1] = cited from earlier work
[2] = Dissolution rate, USP II paddle method, simulated in vivo condition; format: physicochemical; conditions: medium conversion pH 1.2→6.8
Experimental: Analytical method for dissolution samples: the same as the HPLC method in the above assay of apparent solubility.
It was reported that the pH value in human stomach was about 1.2, and that in human intestine was about 6.8. The dissolution of each of the pharmaceutical compositions of the present invention was determined under a stimulated in vivo condition, and the results are shown in Table 1-3.

[3] = Apparent solubility in phosphate buffer solution pH 6.8; format: physicochemical
Experimental: Weighting an excess amount of posaconazole pharmaceutical composition into a container, adding phosphate buffer solution (pH 6.8, about ⅔ of the volume of the container), and then placing the container in a shaking table at 37° C., and shaking for 3 h. Filtering the content with a 0.45 μm filter membrane, collecting the filtrate, diluting it with an appropriate amount of methanol, vortex mixing, and then determining the concentration of posaconazole via the following HPLC method: […]

Dissolution ([2]; pH 1.2, 5 min): 89.0%
Dissolution ([2]; pH 1.2, 10 min): 87.0%
Dissolution ([2]; pH 1.2, 30 min): 98.7%
Dissolution ([2]; pH 6.8, 60 min): 7.1%
Dissolution ([2]; pH 6.8, 120 min): 5.6%
Dissolution ([2]; pH 6.8, 180 min): 5.6%
solubility at 3 h ([3]; aqueous buffer, thermodynamic from solid, phosphate buffer solution pH 6.8, 37° C., shaking 3 h): < 1 µg/mL
Apparent solubility ratio (composition/API) ([3]; phosphate buffer solution pH 6.8): 1
SMILES: CC[C@@H]([C@H](C)O)n1ncn(-c2ccc(N3CCN(c4ccc(OC[C@@H]5CO[C@@](Cn6cncn6)(c6ccc(F)cc6F)C5)cc4)CC3)cc2)c1=O [API, 4-[4-[4-[4-[[(3R,5R)-5-(2,4-difluorophenyl)-5-(1,2,4-triazole-1-ylmethyl)oxolan-3-yl]methoxy]phenyl]piperazin-1-yl]phenyl]-2-[(2S,3S)-2-hydroxypentan-3-yl]-1,2,4-triazol-3-one]
Solubility ([1]; free base form, environment of the stomach pH=˜1.2): about 0.8 mg/ml
Solubility ([1]; pH higher than 4): < 1 µg/mL

— patent US10022373B2, “Posaconazole pharmaceutical compositions and preparation methods, uses and pharmaceutical formulations thereof” (SINOTHERAPEUTICS INC., priority 2014, dated 2018)
